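Cells were grown in 96-well plates and exposed to each compound for 48 hours at five concentrations; endpoints were interpolated linearly between bracketing concentrations, or set to the highest concentration if not reached. GI50 is the concentration that inhibits growth by half.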 Activity calls are given as the source filed them. No stated cut-off is given here; in the data, active = GI50 up to about 1.1 µM and inactive = higher.
What was measured:
Experiment in all cases: NCI tumour cell line growth inhibition, 48 h
OVCAR-4 = system: OVCAR-4
KM12 = system: KM12
SK-MEL-2 = system: SK-MEL-2
HCC 2998 = system: HCC 2998
SK-MEL-5 = system: SK-MEL-5
COLO 205 = system: COLO 205
M14 = system: M14
HOP-18 = system: HOP-18
IGROV-1 = system: IGROV-1
K562 = system: K562
SF-295 = system: SF-295
RPMI-8226 = system: RPMI-8226
CCRF-CEM = system: CCRF-CEM
NCI-H23 = system: NCI-H23
HOP-62 = system: HOP-62
M19-MEL = system: M19-MEL

Compound | GI50 (OVCAR-4) | GI50 (KM12) | GI50 (SK-MEL-2) | GI50 (HCC 2998) | GI50 (SK-MEL-5) | GI50 (COLO 205) | GI50 (M14) | GI50 (HOP-18) | GI50 (IGROV-1) | GI50 (K562) | GI50 (SF-295) | GI50 (RPMI-8226) | GI50 (CCRF-CEM) | GI50 (NCI-H23) | GI50 (HOP-62) | GI50 (M19-MEL)
CC1CCN(c2cc(-c3cc4ccccc4o3)oc(=O)c2C#N)CC1 | 18.8 µM (inactive) | > 100 µM (inactive) | > 100 µM (inactive) | > 100 µM (inactive) | > 100 µM (inactive) | > 100 µM (inactive) | > 100 µM (inactive) | > 100 µM (inactive) | > 100 µM (inactive) | > 100 µM (inactive) | 68.9 µM (inactive) | > 100 µM (inactive) | > 100 µM (inactive) | > 100 µM (inactive) |  | 
COc1ccc(NC(=O)C(=O)Cc2ccc([N+](=O)[O-])c([N+](=O)[O-])c2CC(=O)C(=O)Nc2ccc(OC)cc2OC)c(OC)c1 | > 100 µM (inactive) | > 100 µM (inactive) |  | > 100 µM (inactive) |  | > 100 µM (inactive) | > 100 µM (inactive) | > 100 µM (inactive) | > 100 µM (inactive) | > 100 µM (inactive) | > 100 µM (inactive) | > 100 µM (inactive) | > 100 µM (inactive) | > 100 µM (inactive) | > 100 µM (inactive) | 95.9 µM (inactive)
CCOC(=O)c1cc(Cl)ccc1OC(N)=O | > 100 µM (inactive) | > 100 µM (inactive) | > 100 µM (inactive) | > 100 µM (inactive) | > 100 µM (inactive) | > 100 µM (inactive) |  | > 96.4 µM (inactive) | > 100 µM (inactive) | > 100 µM (inactive) | > 100 µM (inactive) | > 100 µM (inactive) | > 100 µM (inactive) | > 100 µM (inactive) | > 100 µM (inactive) | > 100 µM (inactive)
N#Cc1ccc([N+](=O)[O-])cc1NC(N)=S |  | > 100 µM (inactive) | > 100 µM (inactive) | > 100 µM (inactive) | > 100 µM (inactive) | > 100 µM (inactive) | > 100 µM (inactive) | > 100 µM (inactive) | > 100 µM (inactive) |  | > 100 µM (inactive) | > 100 µM (inactive) |  |  | > 100 µM (inactive) | > 100 µM (inactive)
CCC1N2CCCCC2[C@@H]2c3[nH]c4ccccc4c3CCN12 (stereo partly drawn) | > 100 µM (inactive) |  | > 100 µM (inactive) | > 100 µM (inactive) | > 100 µM (inactive) | > 100 µM (inactive) | > 100 µM (inactive) | > 100 µM (inactive) | > 100 µM (inactive) | > 100 µM (inactive) | > 100 µM (inactive) | > 100 µM (inactive) | > 100 µM (inactive) | > 100 µM (inactive) | > 100 µM (inactive) | > 100 µM (inactive)
N/C(=N\O)N/N=C/c1ccc2c(c1)OCCO2 | 8.91 µM (inactive) | 5.04 µM (inactive) | 9.08 µM (inactive) |  | 7.21 µM (inactive) | 7.28 µM (inactive) |  | 24.2 µM (inactive) | 12.4 µM (inactive) | 7.85 µM (inactive) | 6.59 µM (inactive) | 16.8 µM (inactive) | 33.7 µM (inactive) | 25.6 µM (inactive) | 19.8 µM (inactive) | > 33 µM (inactive)
S=P1(Oc2ccccc2)NNP2(=NP(N3CC3)(N3CC3)=NP(N3CC3)(N3CC3)=N2)NN1 (stereo not drawn) | > 100 µM (inactive) | > 100 µM (inactive) | > 100 µM (inactive) | > 100 µM (inactive) | > 100 µM (inactive) | > 100 µM (inactive) |  | > 100 µM (inactive) | > 100 µM (inactive) | > 100 µM (inactive) | > 10 µM (inactive) | > 100 µM (inactive) | 38.9 µM (inactive) | 41.9 µM (inactive) | 49.4 µM (inactive) | > 100 µM (inactive)
Cc1ccc(N2C(=O)N(c3ccc(C)cc3)C3(SC=NN3C)C2=O)cc1 (stereo not drawn) | 95.5 µM (inactive) | 47.6 µM (inactive) |  | 98.9 µM (inactive) | 30 µM (inactive) | 91 µM (inactive) | 69.8 µM (inactive) | > 100 µM (inactive) | > 100 µM (inactive) | 40.6 µM (inactive) | 47.8 µM (inactive) | 49.2 µM (inactive) | 40.6 µM (inactive) | 35.2 µM (inactive) | > 100 µM (inactive) | 72.6 µM (inactive)
O/N=C/c1ncccc1C1OCCO1 | > 100 µM (inactive) | > 100 µM (inactive) | > 100 µM (inactive) |  | > 100 µM (inactive) | > 100 µM (inactive) | > 100 µM (inactive) | > 100 µM (inactive) | > 100 µM (inactive) | > 100 µM (inactive) | > 100 µM (inactive) |  | > 100 µM (inactive) | > 100 µM (inactive) | > 100 µM (inactive) | > 100 µM (inactive)
CCOc1cccc2[s+]snc12 | 58.5 µM (inactive) | > 100 µM (inactive) | > 100 µM (inactive) | > 100 µM (inactive) | 23.6 µM (inactive) | > 100 µM (inactive) | > 100 µM (inactive) | 77.8 µM (inactive) | > 100 µM (inactive) | 39.8 µM (inactive) | > 100 µM (inactive) |  | 62.8 µM (inactive) | > 10 µM (inactive) | > 100 µM (inactive) | 56 µM (inactive)
N/C(=N/O)N/N=C\c1cc(Cl)cc(Cl)c1O | 8.04 µM (inactive) | 6.65 µM (inactive) | 9.62 µM (inactive) | 2.31 µM (inactive) | 3.3 µM (inactive) | 5.7 µM (inactive) |  | 10.7 µM (inactive) | 6.97 µM (inactive) | 3.06 µM (inactive) | 0.791 µM (active) | 3.99 µM (inactive) | 0.193 µM (active) | 1.54 µM (inactive) | 0.615 µM (active) | 4.19 µM (inactive)
CC(C)(C)c1cc(Cc2ccc(S(C)(=O)=O)cc2)c(O)c(C(C)(C)C)c1 | 14.4 µM (inactive) | 16.4 µM (inactive) | 16.7 µM (inactive) | 16.2 µM (inactive) | 16.3 µM (inactive) |  | 15.4 µM (inactive) | 22.7 µM (inactive) | 14.9 µM (inactive) | 13.8 µM (inactive) | 13.2 µM (inactive) | 10.8 µM (inactive) | 12.3 µM (inactive) | 16.8 µM (inactive) | 16.2 µM (inactive) | 17.1 µM (inactive)
CN(C)c1ccc(C=C2C(=O)OC(C)(C)OC2=O)cc1Br | > 100 µM (inactive) | > 100 µM (inactive) | > 100 µM (inactive) | > 100 µM (inactive) | > 100 µM (inactive) | > 100 µM (inactive) | > 100 µM (inactive) | > 100 µM (inactive) |  | 82.6 µM (inactive) | > 100 µM (inactive) | > 100 µM (inactive) | > 100 µM (inactive) | > 100 µM (inactive) | > 100 µM (inactive) | > 100 µM (inactive)
O=[N+]([O-])c1cc(C(F)(F)F)cc2c1SC1=Nc3ccccc3CN12 | > 100 µM (inactive) | > 100 µM (inactive) | > 100 µM (inactive) | > 100 µM (inactive) | > 100 µM (inactive) | > 100 µM (inactive) |  | > 100 µM (inactive) | > 100 µM (inactive) | > 100 µM (inactive) | > 100 µM (inactive) | > 100 µM (inactive) | > 100 µM (inactive) | > 100 µM (inactive) | > 100 µM (inactive) | > 100 µM (inactive)

— ChEMBL document CHEMBL1201862, “PubChem BioAssay data set” (2004)
